Source: patent publication US4446315A, “Adenosine 5'-triphosphate-4-carboxamide-ribofuranosylthiazole” (The United States of America as represented by the …, priority 1982, dated 1984)
Entries after “also recorded” stand apart in the source; their conditions may differ. Like-named read-outs stand apart in the source and are kept apart here.

Experiments:
P388 leukemic cells = test: Cytotoxicity against P388 leukemic cells in culture; type: cell-based; conditions: Mus musculus, read-out: Cytotoxicity Against P388 Leukemic Cells in Culture IC50 (median inhibitory concentration)
[1] = Antitumor activity of the metabolite administered as such; conditions: compared with progenitor TR; initial experiments
[2] = biological target: bacterial IMP dehydrogenase; test: Inhibition of bacterial IMP dehydrogenase; type: biochemical; conditions: chemically synthesized TAD; read-out: Ki against bacterial IMP dehydrogenase

NC(=O)c1csc([C@@H]2O[C@H](COP(=O)(O)OP(=O)(O)OC[C@H]3O[C@@H](n4cnc5c(N)ncnc54)[C@H](O)[C@@H]3O)[C@@H](O)[C@H]2O)n1 [TAD, adenosine 5'-(trihydrogen diphosphate) 5'→5'-ester with 4-carboxamide-2-β-D-ribofuranosylthiazole]
IC50 (P388 leukemic cells; P388, chemically synthesized TAD): 3.5 µM | IC50 (P388 leukemic cells; P388, enzymatically (biologically) synthesized TAD): 2.5 µM | Antitumor activity [1]: active when administered as such; also recorded: superior to that of its progenitor | Ki [2]: 3.4 µM
